Experimental data from US20160175306A1, “COMBINATION OF A IMIDAZOPYRIDAZINE DERIVATIVE AND A MITOTIC AGENT FOR THE TREATMENT OF CANCER” (BAYER PHARMA AKTIENGESELLSCHAFT, priority 2013, published 2016).
Values joined by “and” are separate entries in the source; they are usually repeats but may differ in a detail not shown here. Equal entries are not always repeated. Where two headings read alike, the source gives them in different places.

What was measured:
[1] = target: T1, human CYP3A4 (Homo sapiens, UniProt P08684); assay: Determination of inhibitory potential on human CYP3A4; format: in vitro ADME; conditions: human liver microsomes, midazolam substrate; read-out: inhibition of liver enzyme CYP3A4
T1 construct: Human liver microsomal preparation (pool of HLM) was applied for the assay; from tissue; host or cells: pooled human liver microsomes
T1 sequence (P08684 whole entry): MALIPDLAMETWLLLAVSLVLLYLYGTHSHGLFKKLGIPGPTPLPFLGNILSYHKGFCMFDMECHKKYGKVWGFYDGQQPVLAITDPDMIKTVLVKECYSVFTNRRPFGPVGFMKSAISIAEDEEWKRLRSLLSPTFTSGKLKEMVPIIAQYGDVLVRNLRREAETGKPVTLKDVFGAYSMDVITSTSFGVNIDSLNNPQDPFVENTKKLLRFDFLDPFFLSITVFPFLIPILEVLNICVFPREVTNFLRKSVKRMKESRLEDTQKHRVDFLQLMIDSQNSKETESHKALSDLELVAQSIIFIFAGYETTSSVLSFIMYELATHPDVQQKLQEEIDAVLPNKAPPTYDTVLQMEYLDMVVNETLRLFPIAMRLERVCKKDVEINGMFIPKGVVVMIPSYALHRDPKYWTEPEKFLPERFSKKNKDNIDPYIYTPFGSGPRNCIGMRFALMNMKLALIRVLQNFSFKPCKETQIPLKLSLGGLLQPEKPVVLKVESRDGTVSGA
Procedure: Determination of Inhibitory Potential on Human CYP3A4
The potential of the test compound to act as a competitive inhibitor of CYP3A4 was evaluated in in vitro assays, using human liver microsomes and the reference substrate midazolam. The test compound was solved in acetonitrile. Human liver microsomal preparation (pool of HLM) was applied for the assay.
A stock solution of the test compound was added to phosphate buffer containing EDTA, NADP, glucose 6-phosphate, and glucose 6-phosphate dehydrogenase. This mixture was sequentially diluted on a Genesis Workstation (Tecan, Crailsheim, FRG). After pre-warming, reaction was initiated by addition of a mixture of probe substrate (midazolam). […] The reference samples (substrate, but no inhibitor) were incubated in parallel in sextuple and contained the same amount of solvent as the test incubations. Reactions were stopped by addition of 100 μL acetonitrile containing the internal standard. Precipitated proteins were removed by centrifugation of the well plate, supernatants were analyzed by LC-MS/MS.
The CYP3A4-mediated metabolic activity in the presence of the test compounds was expressed as percentages of the corresponding reference value. […]

[2] = system: spindle assembly checkpoint in HeLa cells (phosphorylated histone H3 on serine 10); assay: Spindle Assembly Checkpoint Assay; format: cell-based; conditions: Homo sapiens, nocodazole 0.1 μg/ml, 4 h with compound
Text: The spindle assembly checkpoint assures the proper segregation of chromosomes during mitosis. Upon entry into mitosis, chromosomes begin to condensate which is accompanied by the phosphorylation of histone H3 on serine 10. Dephosphorylation of histone H3 on serine 10 begins in anaphase and ends at early telophase. Accordingly, phosphorylation of histone H3 on serine 10 can be utilized as a marker of cells in mitosis. Nocodazole is a microtubule destabilizing substance. Thus, nocodazole interferes with microtubule dynamics and mobilises the spindle assembly checkpoint. […] An inhibition of the spindle assembly checkpoint by Mps-1 inhibitors overrides the mitotic blockage in the presence of nocodazole, and the cells complete mitosis prematurely. This alteration is detected by the decrease of cells with phosphorylation of histone H3 on serine 10. This decline is used as a marker to determine the capability of compounds of the present invention to induce a mitotic breakthrough.
Cultivated cells of the human cervical tumour cell line HeLa (ATCC CCL-2) were plated at a density of 2500 cells/well in a 384-well microtiter plate in 20 μl Dulbeco's Medium (w/o phenol red, w/o sodium pyruvate, w […] glucose, w pyridoxine) supplemented with 1% (v/v) glutamine, 1% (v/v) penicillin, 1% (v/v) streptomycin and 10% (v/v) fetal calf serum. After incubation overnight at 37° C., 10 μl/well nocodazole at a final concentration of 0.1 μg/ml were added to cells. After 24 h incubation, cells were arrested at G2/M phase of the cell cycle progression. […] Images were acquired with a Perkin Elmer OPERA™ High-Content Analysis reader. Images were analyzed with image analysis software MetaXpress™ from Molecular devices utilizing the Cell Cycle application module. In this assay both labels HOECHST 33342 and phosphorylated Histone H3 on serine 10 were measured. […] The raw assay data were further analysed by four parameter logistic regression analysis to determine the IC50 value for each tested compound.

[3] = system: HeLa human cervical tumour cells; assay: Proliferation Assay with HeLa cells; format: cell-based; conditions: 96 h, 4 days, crystal violet
Procedure: After 24 hours, the cells of one plate (zero-point plate) were stained with crystal violet (see below), while the medium of the other plates was replaced by fresh culture medium (200 μl), to which the test substances were added in various concentrations (0 μM, as well as in the range of 0.01-30 μM; the final concentration of the solvent dimethyl sulfoxide was 0.5%). The cells were incubated for 4 days in the presence of test substances. […] After three washing cycles of the fixed cells with water, the plates were dried at room temperature. The cells were stained by adding 100 μl/measuring point of a 0.1% crystal violet solution (pH 3.0). After three washing cycles of the stained cells with water, the plates were dried at room temperature. The dye was dissolved by adding 100 μl/measuring point of a 10% acetic acid solution. […] The change of cell number, in percent, was calculated by normalization of the measured values to the extinction values of the zero-point plate (=0%) and the extinction of the untreated (0 μm) cells (=100%). The IC50 values were determined by means of a 4 parameter fit using the company's own software.

[4] = system: NCI-H1299 human NSCLC xenograft model; conditions: for T/C weight: mean final tumor weight; for T/C area: relative tumor area at control dosing stop (22 treatment days)
Text: In Vivo Anti-Tumor Efficacy of Mps-1 Kinase Inhibitors of the Present Invention in Combination with Paclitaxel in NCI-H1299 Human NSCLC Model in Nude Mice
The effect of combination treatment of an Mps-1 kinase inhibitor of the present invention and paclitaxel was studied in the NCI-H1299 taxane intrinsically resistant human lung carcinoma (NSCLC) xenograft model in nude mice. […] Substances were formulated in optimal vehicles to achieve solutions. Animal body weight and tumor size were determined three times weekly. Treatment for all groups started at a tumor size of 30 mm^2, at day 8 after tumor cell inoculation. […] At the end of the study after one final treatment plasma and tumors were sampled for PK analysis and final tumor weight was determined.

[5] = system: A2780cis human ovarian cancer xenograft model; conditions: for T/C weight: mean final tumor weight; for T/C area: relative tumor area at control dosing stop (15 treatment days)
Procedure: In Vivo Anti-Tumor Efficacy of Mps-1 Kinase Inhibitors of the Present Invention in Combination with Paclitaxel in A2780cis Human Ovarian Cancer Model in Nude Mice
The effect of combination treatment of an Mps-1 kinase inhibitor of the present invention and paclitaxel was studied in the adaptive cisplatin-resistant and paclitaxel intrinsically resistant A2780cis xenograft model. […] Animal body weight and tumor size were determined three times weekly. Treatment for all groups started at a tumor size of 29 mm^2, at day 6 after tumor cell inoculation. […] At the end of the study after one final treatment plasma and tumors were sampled for PK analysis and final tumor weight was determined.

[6] = Compound A27 2 mg/kg 2QD 2on/5off p.o.
[7] = Compound A27 3 mg/kg 2QD 2on/5off p.o.

Q: `COc1ccc(Oc2cc(NCC3COC3)c3ncc(-c4ccc(C(=O)NC5CC5)c(C)c4)n3n2)cc1F` [Compound A26, N-cyclopropyl-4-{6-(3-fluoro-4-methoxyphenoxy)-8-[(oxetan-3-ylmethyl)amino]imidazo[1,2-b]pyridazin-3-yl}-2-methylbenzamide] was tested. Which IC50 [1] did it give?
A: The IC50 was ≥ 5000 nM.

Q: And the IC50 [2]?
A: Its IC50 is < 1 nM.

Q: What about the IC50 [3] of the same molecule?
A: Its IC50 is < 25 nM.

Q: Which “Fatal Tox” value [4, 6] does the source give for `COc1ccc(Oc2cc(NCCC(F)(F)F)c3ncc(-c4ccc(C(=O)NC5CC5)c(C)c4)n3n2)c(F)c1F` [Compound A27, N-cyclopropyl-4-{6-(2,3-difluoro-4-methoxyphenoxy)-8-[(3,3,3-trifluoropropyl)amino]imidazo[1,2-b]pyridazin-3-yl}-2-methylbenzamide] here?
A: The value was 0/10.

Q: And the T/C weight [4, 6]?
A: Its T/C weight is 1.18.

Q: What about the T/C area [4, 6] of the same molecule?
A: Its T/C area is 0.99 and 0.98.

Q: And the “Fatal Tox” value [4, 7]?
A: Its value is 0/10.

Q: What about the T/C weight [4, 7] of the same molecule?
A: Its T/C weight is 0.74.

Q: And the T/C area [4, 7]?
A: The T/C area was 0.64.

Q: What about the IC50 [2] of the same molecule?
A: The IC50 was < 1 nM.

Q: What about the “Fatal Tox” value [5, 6] of the same molecule?
A: The value was 0/10.

Q: What about the T/C weight [5, 6] of the same molecule?
A: The T/C weight was 0.98.

Q: What about the T/C area [5, 6] of the same molecule?
A: The T/C area was 1.00.

Q: What about the “Fatal Tox” value [5, 7] of the same molecule?
A: Its value is 0/10.

Q: What about the T/C weight [5, 7] of the same molecule?
A: The T/C weight was 0.88.

Q: What about the T/C area [5, 7] of the same molecule?
A: The T/C area was 0.90.

Q: For `COc1ccc(Oc2cc(NCC3CCOCC3)c3ncc(-c4ccc(C(=O)NC5CC5)c(C)c4)n3n2)c(F)c1F` [Compound A28, N-cyclopropyl-4-{6-(2,3-difluoro-4-methoxyphenoxy)-8-[(tetrahydro-2H-pyran-4-ylmethyl)amino]imidazo[1,2-b]pyridazin-3-yl}-2-methylbenzamide], which IC50 [1] is on record?
A: The IC50 was ≥ 5000 nM.

Q: And the IC50 [2]?
A: Its IC50 is < 1 nM.

Q: And the IC50 [3]?
A: Its IC50 is < 25 nM.
